Reference: PubChem BioAssay (NCI)
Values joined by “and” are separate entries in the source; they are usually repeats but may differ in a detail not shown here. Equal values may be shown once.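 Where inhibition never reached the appropriate level, the endpoint shown equals the highest concentration tested. Otherwise, values were interpolated linearly from a five-concentration, 48-hour dose response in 96-well plates. Abbreviation: GI50, concentration required for 50% inhibition of growth. TGI marks complete inhibition of growth.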

How the values were obtained:
Assay in all cases: DTP human tumour cell line panel, 48 h
[1] = test system: SK-OV-3 ovarian
[2] = test system: HOP-92 NSCLC
[3] = test system: SF-295 CNS
[4] = test system: U251 CNS
[5] = test system: OVCAR-4 ovarian
[6] = test system: SF-268 CNS
[7] = test system: HCT-15 colon
[8] = test system: NCI-H460 lung
[9] = test system: UO-31 renal
[10] = test system: IGROV1 ovarian

Row | Structure (SMILES) | TGI [1] | TGI [2] | TGI [3] | TGI [4] [µM] | TGI [5] | TGI [6] [µM] | TGI [7] [µM] | TGI [8] | TGI [9] | TGI [10] | GI50 [1] | GI50 [2] | GI50 [3] | GI50 [4] | GI50 [5] | GI50 [6] | GI50 [7] | GI50 [8] | GI50 [9] | GI50 [10]
1 | CCCCC(=O)OCC(=O)[C@]1(O)Cc2c(O)c3c(c(O)c2[C@@H](OC2CC(NC(=O)C(F)(F)F)C(O)C(C)O2)C1)C(=O)c1c(OC)cccc1C3=O (stereo partly specified) | 1.73 µM | 3.88 µM | 2.19 µM | 2.81 | 8.71 µM | 4.99 | 6.9 | 2.48 µM | 3.45 µM | 17 µM | – | – | – | – | – | – | – | – | – | –
2 | CC(C)=CC(=O)C1c2cccc(O)c2C(=O)c2c(O)cc(C)cc21 (stereo unspecified) | 8.48 µM | 7.83 µM | 3.39 µM | 3.82 | 4.52 µM | 5.3 | 10.6 | 10.1 µM | 3.74 µM | 4.76 µM | – | – | – | – | – | – | – | – | – | –
3 | Cc1cc(I)cc(CN(C)CCCCN2CCCCC2)c1O | 42.4 µM | 38.2 µM | 7.62 µM | 31.2 | > 100 µM | 27.3 | 25.8 | 26.7 µM | 36.6 µM | 41 µM | 18.3 µM | 6.2 µM | 3.05 µM | 13.7 µM | 28.3 µM | 12.5 µM | 6.08 µM | 13.2 µM | 14.2 µM | 17.7 µM
4 | Cc1cc(C)nc(NS(=O)(=O)c2ccc(NC(=O)c3ccc(Cl)c4c(Nc5ccc(S(=O)(=O)Nc6nc(C)cc(C)n6)cc5)c5ccccc5nc34)cc2)n1 | 76.5 µM | 5.93 µM | > 100 µM | 21.9 | 48.1 µM | > 100 | > 100 | > 100 µM | 57.4 µM | > 100 µM | – | – | – | – | – | – | – | – | – | –
5 | COC1=CC(c2ccc[nH]2)=N/C1=C\c1[nH]c(C)c(C(=O)OC(C)C)c1C | 4.65 µM | 0.0815 µM | 0.123 µM | 0.82 | 4.62 µM | 5.25 | 1.14 | 1.63 µM | 0.175 µM | 1.62 µM | 0.831 µM | 0.0239 µM | 0.0264 µM | 0.0355 µM | 0.0531 µM | 0.0608 µM | 0.026 µM | 0.0269 µM | 0.0494 µM | 0.0535 µM
6 | COc1cc(/C=N/NC(=O)c2ccc(C(F)(F)F)nc2Nc2ccc(Cl)cc2C)ccc1O | 15.6 µM | 7.58 µM | 3.23 µM | 10.6 | 17 µM | 13.3 | 10.4 | 11.7 µM | 7.76 µM | 7.02 µM | 3.79 µM | 1.59 µM | 1.16 µM | 2.09 µM | 1.54 µM | 1.78 µM | 0.987 µM | 2.65 µM | 1.39 µM | 0.838 µM
7 | CN/N=C(/Cc1occc(=O)c1O)C(=O)Nc1ccccc1C | > 100 µM | > 100 µM | > 100 µM | > 100 | > 100 µM | > 100 | > 100 | > 100 µM | > 100 µM | > 100 µM | – | – | – | – | – | – | – | – | – | –
8 | COc1ccc2c3c1C(=O)CCCC3CO2 (stereo unspecified) | > 100 µM | > 100 µM | > 100 µM | > 100 | > 100 µM | > 100 | > 100 | > 100 µM | > 100 µM | > 100 µM | – | – | – | – | – | – | – | – | – | –
9 | CN(C)CC[N+]1=Nc2cccc3cccc(c23)N1 | > 100 µM | > 100 µM | > 100 µM | > 100 | > 100 µM | > 100 | > 100 | > 64.8 µM | > 60.9 µM | > 100 µM | – | – | – | – | – | – | – | – | – | –
10 | CCN(CCO)CC1CCCC2CCCCC21 (stereo unspecified) | > 100 µM | > 100 µM | > 100 µM | > 100 | > 100 µM | > 100 | > 100 | > 100 µM | > 100 µM | > 100 µM | – | – | – | – | – | – | – | – | – | –
11 | O=C(CC1(O)C(=O)Nc2c(Cl)cc(Cl)cc21)c1ccc(Br)cc1Br (stereo unspecified) | 44.2 µM | 9.75 µM | 34.9 µM | 28.5 | 29.5 µM | 24 | 22.2 | 28.9 µM | 29.5 µM | 34.7 µM | – | – | – | – | – | – | – | – | – | –
12 | CC(=O)NNc1nc(C)c(C(=O)NNC(=O)C(=O)Nc2ccc(Cl)cc2)s1 | > 100 µM | > 100 µM | > 100 µM | > 100 | > 100 µM | > 100 | > 100 | > 100 µM | > 100 µM | > 100 µM | – | – | – | – | – | – | – | – | – | –
13 | CCCCCCCCCCCCCCCCCC(CCCCCCCCCCCCCCCCC)OP(=O)(O)O | > 100 µM | > 100 µM | > 100 µM | > 100 | > 100 µM | > 100 | > 100 | > 100 µM | > 100 µM | > 100 µM | – | – | – | – | – | – | – | – | – | –
14 | Cn1cnc([N+](=O)[O-])c1Sc1nnc(-c2cccnc2)n1C | > 100 µM | 30.6 µM | > 100 µM | > 100 | 56.6 µM | > 95.7 | 36.2 | > 100 µM | 53.8 µM | > 100 µM | – | – | – | – | – | – | – | – | – | –
15 | COc1ccc(-c2nc3sccn3c2/C(N)=N/C(=N)N)cc1OC | > 100 µM | > 100 µM | 87.1 µM | > 100 | > 100 µM | > 100 | > 100 | > 100 µM | 40.2 µM | 7.11 µM | > 100 µM | 56.5 µM | 30.5 µM | 34.1 µM | > 100 µM | 50.3 µM | > 100 µM | 46.7 µM | 7.37 µM | 3.26 µM
16 | O=C1C=C(Cl)C(=O)C(c2ccc(Cl)cc2)=C1 | > 100 µM | 35.7 µM | > 100 µM | 30 | 51.6 µM | 42.3 | 47.5 | > 100 µM | 28.5 µM | 30.8 µM | – | – | – | – | – | – | – | – | – | –
17 | CCCCCN(CCCCC)CCCNc1c2c(nc3ccc(Cl)cc13)CCCC2 | 13.8 µM | 5.63 µM | 3.05 µM | 7.37 | 12 µM | 14.5 | 11.1 | 6.9 µM | 10.2 µM | 5.77 µM | 4.08 µM | 1.19 µM | 1.18 µM | 2.58 µM | 2.05 µM | 3.67 µM | 2.58 µM | 2.28 µM | 1.93 µM | 1.49 µM
18 | CCOC(=O)[C@]1(OC(C)=O)C[C@H](OC(C)=O)[C@@H](C(F)COP(=O)(OCc2ccccc2)OCc2ccccc2)O1 (stereo partly specified) | > 100 µM | 34.5 µM | > 100 µM | > 100 | 39 µM and > 100 µM | > 100 | > 100 | 39.9 µM and > 100 µM | 43.5 µM and > 100 µM | 39.8 µM and > 100 µM | – | – | 47.9 µM and > 100 µM | 35.9 µM and > 100 µM | 18 µM and > 100 µM | – | 33.1 µM and > 100 µM | 18.4 µM and > 100 µM | 21.6 µM and > 100 µM | 19.6 µM and > 100 µM
19 | COC1CCC(N2C(=O)CNc3ncc(-c4ccc(C(C)(C)O)nc4)nc32)CC1 (stereo unspecified) | 3.93 µM and 0.551 µM | 0.934 µM and 0.389 µM | 4.75 µM and 3.09 µM | > 33.4 | > 7.88 µM and 1.07 µM | > 41.5 | > 36.1 | > 46 µM | 3.08 µM and 10.5 µM | 2.8 µM and 1.64 µM | 0.464 µM and 0.0716 µM | 0.129 µM and 0.0247 µM | 0.511 µM and 0.157 µM | 1.41 µM and 1.06 µM | 0.568 µM and 0.12 µM | 1.97 µM and 0.356 µM | 0.732 µM and 0.293 µM | 0.455 µM and 0.113 µM | 0.199 µM and 0.0768 µM | 0.315 µM and 0.0564 µM
20 | CC(C)CCC[C@@H](C)[C@H]1CC[C@H]2[C@@H]3CC=C4C[C@@H](C(C(=O)O)C(=O)O)CC[C@]4(C)[C@H]3CC[C@]12C | 3.15 µM | 0.904 µM | 0.153 µM | 0.408 | 4.35 µM | 1.65 | 0.612 | 0.497 µM | 0.467 µM | 1.12 µM | 0.298 µM | 0.307 µM | 0.0643 µM | 0.129 µM | 0.207 µM | 0.157 µM | 0.148 µM | 0.16 µM | 0.137 µM | 0.166 µM
21 | O=C1C(Cl)=C(Nc2cccc(Cl)c2)C(=O)N1Cc1ccc(Cl)cc1Cl | 20.6 µM | 20.9 µM | 33.4 µM | 13.7 | 7.41 µM | 25 | 8.84 | 21 µM | 3.45 µM | 9.15 µM | 3.57 µM | 2.55 µM | 4.22 µM | – | 0.508 µM | 1.37 µM | 0.0981 µM | 2.68 µM | 0.431 µM | < 0.023 µM
22 | O=C1C(=O)N(c2ccc(Cl)cc2Cl)C(=O)C(=O)C1c1nc2ccccc2s1 | > 100 µM | > 100 µM | > 100 µM | > 100 | > 100 µM | > 100 | > 100 | > 100 µM | > 100 µM | > 100 µM | – | – | – | – | – | – | – | – | – | –
23 | Cc1ccc(C(=O)/C(=C/c2ccc([N+](=O)[O-])cc2)SCc2ccc(Cl)cc2)cc1 | > 100 µM | 55.2 µM | 3.4 µM | 2.4 | 6.37 µM | 15.8 | 2.69 | 12 µM | 2.66 µM | 8.6 µM | 27.4 µM | 2.86 µM | 1.55 µM | 1.11 µM | 1.87 µM | 2.44 µM | 0.565 µM | 2.58 µM | 1.2 µM | 2.23 µM
24 | COC1=CC(=O)c2nc(-c3ccncc3)[nH]c2C1=O | > 100 µM | > 100 µM | > 100 µM | > 100 | > 100 µM | > 100 | > 100 | > 100 µM | > 100 µM | > 100 µM | > 100 µM | 31.4 µM | > 100 µM | > 100 µM | 45.3 µM | > 100 µM | > 100 µM | > 100 µM | 86.7 µM | > 100 µM
